Measured values as given in paper PMC10527105, “Chirality Matters: Fine-Tuning of Novel Monoamine Reuptake Inhibitors Selectivity through Manipulation of Stereochemistry” (Biomolecules, 2023).
Where two headings read alike, the source gives them in different places.

How the values were obtained:
[1] = target: T1, noradrenaline transporter/SLC6A2 (NET) (Homo sapiens, UniProt P23975); details: cells stably expressing NET; ref [35]; read-out: Reuptake Inhibition (IC50 ± SE, µM) NET; cited from earlier work
T1 construct: expressed in transfected cells; host or cells: HEK293
T1 sequence (P23975 whole entry): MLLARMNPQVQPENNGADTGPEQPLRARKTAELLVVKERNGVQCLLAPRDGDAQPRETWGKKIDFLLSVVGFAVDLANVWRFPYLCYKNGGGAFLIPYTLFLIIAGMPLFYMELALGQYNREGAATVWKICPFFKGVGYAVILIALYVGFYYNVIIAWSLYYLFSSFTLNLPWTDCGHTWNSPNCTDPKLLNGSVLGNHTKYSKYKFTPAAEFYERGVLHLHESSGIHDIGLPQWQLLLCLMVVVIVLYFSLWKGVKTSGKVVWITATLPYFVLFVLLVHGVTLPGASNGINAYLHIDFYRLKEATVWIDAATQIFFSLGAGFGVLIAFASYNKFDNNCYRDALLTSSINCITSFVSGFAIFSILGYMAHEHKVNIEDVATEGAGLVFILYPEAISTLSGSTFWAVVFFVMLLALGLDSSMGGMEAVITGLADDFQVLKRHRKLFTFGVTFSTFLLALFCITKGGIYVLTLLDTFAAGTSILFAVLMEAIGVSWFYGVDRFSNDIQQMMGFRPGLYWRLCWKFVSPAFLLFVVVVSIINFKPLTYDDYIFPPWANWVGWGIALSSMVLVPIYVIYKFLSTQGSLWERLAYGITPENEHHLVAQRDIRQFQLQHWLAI

rat cortical neurons = test: Neurite outgrowth assay (Cyprotex); format: cell-based; details: for IC50: 72 h
Description: Neurite outgrowth assay. […] were carried out by Cyprotex (an Evotec Company, Toulouse, France), Study No. CYP2052-R1. For an in-depth description, please refer to the report in the supporting information files. Cryo-preserved rat cortical neurons (QBM Cell Science, R-Cx-500) were quickly thawed and slowly diluted with neurobasal medium supplemented with L-glutamine (Invitrogen, Cat. No. 25030-081), penicillin-streptomycin (Invitrogen, Cat. No. 15140-122), and B27 (NB/B27 medium, Invitrogen, Cat. No. 17504-044). After a gentle centrifugation step, the neurons were resuspended in NB/B27 medium at a density of 4.0 × 10^6 cells/mL. One hour prior to treatment, the neurons were plated in 384-well plates (Corning 354663) pre-coated with a laminin solution (Sigma L2020 1 mg/mL) at a density of 10,000 cells per well. After treatment with test articles and control compounds, the neurons were maintained in a humidified environment at 37 °C with 5% CO2 for 72 h. At the end of the treatment period, the neurons were fixed for 1 h with a 3.7% formaldehyde solution (Acros Organics, 41073-0010). The neurons were washed with phosphate buffered saline (PBS) (SH30264.02) and permeabilized for 10 min with a 0.5% solution of Triton X-100 (Millipore Sigma, X100). After another wash step, the neurons were stained for one hour with Hoechst 33342 (ThermoFisher Scientific, H3570) and the anti-beta III tubulin antibody, Alexa Fluor® 488 conjugate (Millipore Sigma AB15708A4), diluted in a blocking buffer solution (Thermo Scientific, 37525). Upon completion of the staining step, the neurons were washed again, and the plates were sealed in preparation for the imaging process. The neurons were evaluated for neurite outgrowth and cell health using the high-content imaging platform, ArrayScan VTi (Thermo Scientific ArrayScan VTi), with an optimized neuronal profiling bio-application.
This assay assessed cell health and neurite outgrowth utilizing a neuronal profiling bio-application applied to images obtained on an ArrayScan VTi. Valid neuron count, mean neurite average length, and neurite total length per neuron were determined and reported. Raw data were normalized to the vehicle control and reported as a normalized% response. Dose response graphs were generated with GraphPad Prism using a sigmoidal dose-response (variable slope) algorithm.

SMILES | IC50 [1] | IC50 (rat cortical neurons; Cortical neurone, rat cortical neurons, read-out: Mean Neurite Avg. Length IC50) | IC50 (rat cortical neurons; Cortical neurone, rat cortical neurons, read-out: Neurite Total Length per Neuron IC50) | IC50 (rat cortical neurons; Cortical neurone, rat cortical neurons, read-out: Valid Neuron Count IC50) | effect on neurite outgrowth in relation to effect on cell viability (rat cortical neurons; rat cortical neurons) | IC50 (rat cortical neurons; Rattus norvegicus, Cortical neurone, read-out: Mean Neurite Avg. Length IC50, rat cortical neurons, 72 h) | IC50 (rat cortical neurons; Rattus norvegicus, Cortical neurone, read-out: Neurite Total Length per Neuron IC50, rat cortical neurons, 72 h) | IC50 (rat cortical neurons; Rattus norvegicus, Cortical neurone, read-out: Valid Neuron Count IC50, rat cortical neurons, 72 h) | IC50 (rat cortical neurons; read-out: Mean Neurite Avg. Length IC50, rat cortical neurons)
NC(=O)C[S@@+]([O-])C(c1ccccc1)c1ccccc1 [R-Modafinil] | 169 ± 90 µM |  |  |  |  |  |  |  | 
COC(=O)Nc1nc2ccc(C(=O)c3cccs3)cc2[nH]1 [Nocodazole, reference compound] |  | 0.097 µM | 0.0997 µM | 2.22 µM | positive for substantially affecting neurite outgrowth while nominally affecting cell viability |  |  |  | 
CN(C)CCCN1c2ccccc2Sc2ccc(Cl)cc21 [Chlorpromazine, reference compound] |  |  |  |  | not independent of its effect on cell viability | 9.02 µM | 13.8 µM | 7.99 µM | 9.02 µM
